# Paper PMC11287240 (RSC Advances, 2024)
# Like-named read-outs stand apart in the source and are kept apart here.
# Tests used:
# [1] = molecular target: EeAChE (Electrophorus electricus acetylcholinesterase) (Electrophorus electricus, UniProt O42275); experiment: AChE inhibition assay; format: biochemical, electric eel
# hBACE 1 = hBACE 1 (Homo sapiens, UniProt P56817); experiment: BACE 1 FRET inhibition assay; format: biochemical; details: human BACE 1
# [2] = hBACE 1 IC50 (μM) ± SD, mean ± SD, n = 3, FRET assay
# [3] = read-out: EeAChE IC50 (μM) ± SD, mean ± SD, n = 3, AChE from electric eel, Ellman assay
# [4] = read-out: hBACE 1 IC50 (μM) ± SD, mean ± SD, n = 3, FRET assay
# Sequence of EeAChE (Electrophorus electricus acetylcholinesterase) (O42275 24-633): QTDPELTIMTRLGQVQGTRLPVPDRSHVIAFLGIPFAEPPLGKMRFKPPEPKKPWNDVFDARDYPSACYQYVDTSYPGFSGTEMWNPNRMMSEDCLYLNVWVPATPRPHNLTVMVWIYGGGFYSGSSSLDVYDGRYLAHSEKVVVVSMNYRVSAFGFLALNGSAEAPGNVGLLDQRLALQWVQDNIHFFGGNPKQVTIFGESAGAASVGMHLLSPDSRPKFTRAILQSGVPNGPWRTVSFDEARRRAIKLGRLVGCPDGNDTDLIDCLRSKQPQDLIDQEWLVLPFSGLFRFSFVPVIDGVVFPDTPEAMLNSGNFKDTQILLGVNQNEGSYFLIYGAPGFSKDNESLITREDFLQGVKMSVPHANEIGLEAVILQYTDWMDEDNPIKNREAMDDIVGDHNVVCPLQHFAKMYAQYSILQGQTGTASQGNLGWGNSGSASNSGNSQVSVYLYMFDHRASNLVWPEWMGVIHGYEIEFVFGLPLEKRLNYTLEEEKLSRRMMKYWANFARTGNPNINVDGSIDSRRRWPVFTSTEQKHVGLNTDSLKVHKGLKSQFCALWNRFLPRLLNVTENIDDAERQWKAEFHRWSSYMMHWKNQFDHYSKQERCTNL
# Sequence of hBACE 1 (P56817 46-501): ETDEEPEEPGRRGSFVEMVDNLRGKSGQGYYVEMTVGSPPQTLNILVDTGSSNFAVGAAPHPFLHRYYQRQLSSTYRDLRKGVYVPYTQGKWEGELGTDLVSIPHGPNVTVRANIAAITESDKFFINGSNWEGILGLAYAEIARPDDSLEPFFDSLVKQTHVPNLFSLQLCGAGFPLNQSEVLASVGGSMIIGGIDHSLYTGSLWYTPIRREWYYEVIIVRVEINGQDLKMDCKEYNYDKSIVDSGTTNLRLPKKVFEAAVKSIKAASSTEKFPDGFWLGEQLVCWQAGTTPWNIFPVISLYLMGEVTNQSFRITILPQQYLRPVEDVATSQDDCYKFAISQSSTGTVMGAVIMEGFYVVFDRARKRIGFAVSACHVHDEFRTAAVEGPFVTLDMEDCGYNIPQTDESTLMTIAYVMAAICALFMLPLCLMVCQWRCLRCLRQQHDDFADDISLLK
SMILES,IC50 [1],IC50 (hBACE 1; [2]),IC50 (hBACE 1; hBACE 1 PIC50 (μM)),EeAChE PIC50 ([1]; AChE from electric eel),"IC50 [1, 3]",hBACE 1 PIC50 (hBACE 1),IC50 (hBACE 1; [4])
"[H]/N=C(/N)NN=C(/C=C/c1ccc(C(C)(C)C)cc1)c1cn(Cc2ccc(C(C)(C)C)cc2)c2ccccc12 [Compound 3h, (Z)-2-((E)-1-(1-(4-(tert-Butyl)benzyl)-1H-indol-3-yl)-3-(4-(tert-butyl)phenyl)allylidene)hydrazine-1-carboximidamide]",55.7 ± 3.17 µM,179.2 ± 0.78 µM,178 µM,,,,
"[H]/N=C(/N)NN=C(/C=C/c1ccc(C)cc1)c1cn(Cc2ccccc2)c2ccccc12 [Compound 1k, (Z)-2-((E)-1-(1-Benzyl-1H-indol-3-yl)-3-(p-tolyl)allylidene)hydrazine-1-carboximidamide]",186 ± 2.69 µM,132.1 ± 0.28 µM,132 µM,,,,
"[H]/N=C(/N)NN=C(/C=C/c1ccccc1)c1cn(Cc2cccc(C#N)c2)c2ccccc12 [Compound 2j, (Z)-2-((E)-1-(1-(3-Cyanobenzyl)-1H-indol-3-yl)-3-phenylallylidene)hydrazine-1-carboximidamide]",75.91 ± 0.32 µM,178.2 ± 0.92 µM,178 µM,,,,
"[H]/N=C(/N)NN=C(/C=C/c1cccc(Br)c1)c1cn(Cc2ccccc2)c2ccccc12 [Compound 1h, (Z)-2-((E)-1-(1-Benzyl-1H-indol-3-yl)-3-(3-bromophenyl)allylidene)hydrazine-1-carboximidamide]",66.3 ± 1.72 µM,15.1 ± 0.74 µM,15.1 µM,,,,
"[H]/N=C(/N)NN=C(/C=C/c1cccc(OC)c1OC)c1cn(Cc2ccccc2)c2ccccc12 [Compound 1p, (Z)-2-((E)-1-(1-Benzyl-1H-indol-3-yl)-3-(2,3-dimethoxyphenyl)allylidene)hydrazine-1-carboximidamide]",48.6 ± 1.51 µM,134 ± 1.42 µM,135 µM,,,,
"[H]/N=C(/N)NN=C(/C=C/c1ccc(F)c(F)c1)c1cn(Cc2ccccc2)c2ccccc12 [Compound 1a, (Z)-2-((E)-1-(1-Benzyl-1H-indol-3-yl)-3-(3,4-difluorophenyl)allylidene)hydrazine-1-carboximidamide]",77.2 ± 2.24 µM,72.11 ± 0.01 µM,72.4 µM,,,,
"[H]/N=C(/N)NN=C(/C=C/c1ccccc1[N+](=O)[O-])c1cn(Cc2ccccc2)c2ccccc12 [Compound 1n, (Z)-2-((E)-1-(1-Benzyl-1H-indol-3-yl)-3-(2-nitrophenyl)allylidene)hydrazine-1-carboximidamide]",216 ± 3.61 µM,12.3 ± 0.6 µM,12.3 µM,,,,
"[H]/N=C(/N)NN=C(/C=C/c1ccccc1)c1cn(Cc2ccccc2C#N)c2ccccc12 [Compound 2e, (Z)-2-((E)-1-(1-(2-Cyanobenzyl)-1H-indol-3-yl)-3-phenylallylidene)hydrazine-1-carboximidamide]",44.02 ± 0.19 µM,197 ± 2.42 µM,195 µM,,,,
"[H]/N=C(/N)NN=C(/C=C/c1ccc(F)c(F)c1)c1cn(Cc2ccc(C(C)(C)C)cc2)c2ccccc12 [Compound 3d, (Z)-2-((E)-1-(1-(4-(tert-Butyl)benzyl)-1H-indol-3-yl)-3-(3,4-difluorophenyl)allylidene)hydrazine-1-carboximidamide]",,,,3.71 µM,195.9 ± 1.73 µM,4.11 µM,76.9 ± 2.38 µM
"[H]/N=C(/N)NN=C(/C=C/c1ccc(C#N)cc1)c1cn(Cc2ccccc2)c2ccccc12 [Compound 1l, (Z)-2-((E)-1-(1-Benzyl-1H-indol-3-yl)-3-(4-cyanophenyl)allylidene)hydrazine-1-carboximidamide]",60.9 ± 2.53 µM,9.38 ± 0.5 µM,9.33 µM,,,,
"[H]/N=C(/N)NN=C(/C=C/c1ccc(OCc2ccccc2)cc1)c1cn(Cc2ccc(C)cc2)c2ccccc12 [Compound 3e, (Z)-2-((E)-3-(4-(Benzyloxy)phenyl)-1-(1-(4-methylbenzyl)-1H-indol-3-yl)allylidene)hydrazine-1-carboximidamide]",144 ± 1.77 µM,107 ± 2.55 µM,107 µM,,,,
"[H]/N=C(/N)NN=C(/C=C/c1ccc(C(C)C)cc1)c1cn(Cc2cc(F)ccc2F)c2ccccc12 [Compound 3f, (Z)-2-((E)-1-(1-(2,5-Difluorobenzyl)-1H-indol-3-yl)-3-(4-isopropylphenyl)allylidene)hydrazine-1-carboximidamide]",167 ± 2.12 µM,82.1 ± 2.74 µM,81.3 µM,,,,
"[H]/N=C(/N)NN=C(/C=C/c1ccc(C(F)(F)F)cc1)c1cn(Cc2ccc(C(F)(F)F)cc2)c2ccccc12 [Compound 3a, (Z)-2-((E)-1-(1-(4-(Trifluoromethyl)benzyl)-1H-indol-3-yl)-3-(4-(trifluoromethyl)phenyl)allylidene)hydrazine-1-carboximidamide]",,,,4.42 µM,38.4 ± 3.46 µM,3.65 µM,222.3 ± 0.49 µM
"[H]/N=C(/N)NN=C(/C=C/c1ccc(F)cc1F)c1cn(Cc2ccccc2)c2ccccc12 [Compound 1m, (Z)-2-((E)-1-(1-Benzyl-1H-indol-3-yl)-3-(2,4-difluorophenyl)allylidene)hydrazine-1-carboximidamide]",,,,3.83 µM,148 ± 3.11 µM,4.89 µM,12.8 ± 0.5 µM
"[H]/N=C(/N)NN=C(/C=C/c1ccccc1)c1cn(Cc2ccc(C(F)(F)F)cc2)c2ccccc12 [Compound 2b, (Z)-2-((E)-3-Phenyl-1-(1-(4-(trifluoromethyl)benzyl)-1H-indol-3-yl)allylidene)hydrazine-1-carboximidamide]",56 ± 2.44 µM,102 ± 1.06 µM,102 µM,,,,
"[H]/N=C(/N)NN=C(/C=C/c1cccc(OCc2ccccc2)c1)c1cn(Cc2ccccc2)c2ccccc12 [Compound 1o, (Z)-2-((E)-1-(1-Benzyl-1H-indol-3-yl)-3-(3-(benzyloxy)phenyl)allylidene)hydrazine-1-carboximidamide]",126.6 ± 0.99 µM,12.8 ± 0.42 µM,12.9 µM,,,,
"[H]/N=C(/N)NN=C(/C=C/c1ccccc1)c1cn(Cc2ccc(F)cc2C(F)(F)F)c2ccccc12 [Compound 2d, (Z)-2-((E)-1-(1-(4-Fluoro-2-(trifluoromethyl)benzyl)-1H-indol-3-yl)-3-phenylallylidene)hydrazine-1-carboximidamide]",169 ± 1.91 µM,140.9 ± 1.06 µM,141 µM,,,,
"[H]/N=C(/N)NN=C(/C=C/c1ccc(OCc2ccccc2)cc1)c1cn(Cc2cccc(OCc3ccccc3)c2)c2ccccc12 [Compound 3i, (Z)-2-((E)-1-(1-(3-(Benzyloxy)benzyl)-1H-indol-3-yl)-3-(4-(benzyloxy)phenyl)allylidene)hydrazine-1-carboximidamide]",26.99 ± 0.13 µM,189 ± 1.91 µM,191 µM,,,,
"[H]/N=C(/N)NN=C(/C=C/c1ccccc1)c1cn(Cc2cc(OC)cc(OC)c2)c2ccccc12 [Compound 2g, (Z)-2-((E)-1-(1-(3,5-Dimethoxybenzyl)-1H-indol-3-yl)-3-phenylallylidene)hydrazine-1-carboximidamide]",55.6 ± 0.72 µM,83.4 ± 1.93 µM,83.2 µM,,,,
"[H]/N=C(/N)NN=C(/C=C/c1ccccc1)c1cn(Cc2cc(C(F)(F)F)cc(C(F)(F)F)c2)c2ccccc12 [Compound 2c, (Z)-2-((E)-1-(1-(3,5-Bis(trifluoromethyl)benzyl)-1H-indol-3-yl)-3-phenylallylidene)hydrazine-1-carboximidamide]",56.6 ± 0.98 µM,70 ± 0.87 µM,70.8 µM,,,,
"[H]/N=C(/N)NN=C(/C=C/c1ccccc1C)c1cn(Cc2ccccc2)c2ccccc12 [Compound 1r, (Z)-2-((E)-1-(1-Benzyl-1H-indol-3-yl)-3-(o-tolyl)allylidene)hydrazine-1-carboximidamide]",46.8 ± 1.83 µM,206 ± 3.75 µM,204 µM,,,,
"[H]/N=C(/N)NN=C(/C=C/c1ccccc1)c1cn(Cc2ccc(Cl)cc2)c2ccccc12 [Compound 2f, (Z)-2-((E)-1-(1-(4-Chlorobenzyl)-1H-indol-3-yl)-3-phenylallylidene)hydrazine-1-carboximidamide]",42.8 ± 2.79 µM,213 ± 2.26 µM,214 µM,,,,
"[H]/N=C(/N)NN=C(/C=C/c1ccccc1)c1cn(Cc2ccc(F)cc2F)c2ccccc12 [Compound 2a, (Z)-2-((E)-1-(1-(2,4-Difluorobenzyl)-1H-indol-3-yl)-3-phenylallylidene)hydrazine-1-carboximidamide]",46.4 ± 1.63 µM,200.1 ± 1.98 µM,200 µM,,,,
"[H]/N=C(/N)NN=C(/C=C/c1ccc(C(C)(C)C)cc1)c1cn(Cc2ccc(C(F)(F)F)cc2)c2ccccc12 [Compound 3k, (Z)-2-((E)-3-(4-(tert-Butyl)phenyl)-1-(1-(4-(trifluoromethyl)benzyl)-1H-indol-3-yl)allylidene)hydrazine-1-carboximidamide]",207 ± 7.64 µM,139 ± 1.98 µM,138 µM,,,,
"[H]/N=C(/N)NN=C(/C=C/c1ccc(C(C)C)cc1)c1cn(Cc2ccccc2)c2ccccc12 [Compound 1d, (Z)-2-((E)-1-(1-Benzyl-1H-indol-3-yl)-3-(4-isopropylphenyl)allylidene)hydrazine-1-carboximidamide]",146 ± 3.18 µM,11.7 ± 0.15 µM,11.7 µM,,,,
"[H]/N=C(/N)NN=C(/C=C/c1cc(OC)ccc1OC)c1cn(Cc2ccccc2)c2ccccc12 [Compound 1j, (Z)-2-((E)-1-(1-Benzyl-1H-indol-3-yl)-3-(2,5-dimethoxyphenyl)allylidene)hydrazine-1-carboximidamide]",61 ± 2.29 µM,72.2 ± 1.76 µM,72.4 µM,,,,
"[H]/N=C(/N)NN=C(/C=C/c1ccc(C(F)(F)F)cc1)c1cn(Cc2ccc(CCCC)cc2)c2ccccc12 [Compound 3j, (Z)-2-((E)-1-(1-(4-Butylbenzyl)-1H-indol-3-yl)-3-(4-(trifluoromethyl)phenyl)allylidene)hydrazine-1-carboximidamide]",13.4 ± 0.49 µM,182.4 ± 1.41 µM,182 µM,,,,
